Where “and” joins values, the source holds several entries; their conditions need not be identical. Identical values can stand only once. Inconclusive results and toxic doses are left out. How the source made its calls: active means survival T/C of 150% or more; inactive means T/C below 125% in these data.
Tested on: P388 leukemia ip, CD2F1 mice, survival T/C
Test: NCI In Vivo Anticancer Drug Screen. Data for tumor model P388 Leukemia (intraperitoneal) in CD2F1 (CDF1) mice
Settings: endpoint: median survival time, higher = longer survival
Outline: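 Mice carrying the transplanted tumor received test compound or vehicle. Survival was recorded in each group, and the value is the treated-group measurement divided by that of the vehicle-treated control group.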

[1] = dose: 12.5 mg/kg/injection, schedule: Q01DX009 (ip), vehicle: saline
[2] = dose: 25.0 mg/kg/injection, schedule: Q01DX009 (ip), vehicle: saline
[3] = dose: 50.0 mg/kg/injection, schedule: Q01DX009 (ip), vehicle: saline
[4] = dose: 100.0 mg/kg/injection, schedule: Q01DX009 (ip), vehicle: saline
[5] = dose: 200.0 mg/kg/injection, schedule: Q01DX009 (ip), vehicle: saline
[6] = dose: 25.0 mg/kg/injection, schedule: Q01DX009 (ip), vehicle: other
[7] = dose: 50.0 mg/kg/injection, schedule: Q01DX009 (ip), vehicle: other
[8] = dose: 100.0 mg/kg/injection, schedule: Q01DX009 (ip), vehicle: other
[9] = dose: 100.0 mg/kg/injection, schedule: Q01DX001 (ip), vehicle: Klucel (hydroxypropylcellulose) (HPC)
[10] = dose: 200.0 mg/kg/injection, schedule: Q01DX001 (ip), vehicle: Klucel (hydroxypropylcellulose) (HPC)
[11] = dose: 50.0 mg/kg/injection, schedule: Q01DX009 (ip), vehicle: Klucel (hydroxypropylcellulose) (HPC)
[12] = dose: 100.0 mg/kg/injection, schedule: Q01DX009 (ip), vehicle: Klucel (hydroxypropylcellulose) (HPC)
[13] = dose: 60.0 mg/kg/injection, schedule: Q01DX005 (ip), vehicle: saline with Tween-80
[14] = dose: 120.0 mg/kg/injection, schedule: Q01DX005 (ip), vehicle: saline with Tween-80
[15] = dose: 240.0 mg/kg/injection, schedule: Q01DX005 (ip), vehicle: saline with Tween-80

Measured: T/C

O=C([CH-]C(=O)C(F)(F)F)C(F)(F)F.O=C([CH-]C(=O)C(F)(F)F)C(F)(F)F.O=C([CH-]C(=O)C(F)(F)F)C(F)(F)F.[Ru+3]
inactive: dose: 7.5 mg/kg/injection, schedule: Q01DX005 (ip), vehicle: Klucel (hydroxypropylcellulose) (HPC) 97 % of control | dose: 15.0 mg/kg/injection, schedule: Q01DX005 (ip), vehicle: Klucel (hydroxypropylcellulose) (HPC) 87 % of control

O=[N+]([O-])/C=C/c1cc2c(cc1Br)OCO2
inactive: dose: 100.0 mg/kg/injection, schedule: Q04DX003 (ip), vehicle: saline with Tween-80 113 % of control | dose: 200.0 mg/kg/injection, schedule: Q04DX003 (ip), vehicle: saline with Tween-80 113 % of control

CC(=O)Cc1cc(-c2cc(CC(C)=O)on2)no1
inactive: dose: 60.0 mg/kg/injection, schedule: Q01DX005 (ip), vehicle: saline 103 % of control | dose: 120.0 mg/kg/injection, schedule: Q01DX005 (ip), vehicle: saline 99 % of control | dose: 240.0 mg/kg/injection, schedule: Q01DX005 (ip), vehicle: saline 100 % of control

CN1C(=O)[C@@H]2N(N(C)C1=O)[C@@]1(Br)C(=O)N(C)C(=O)[C@@]21Br
inactive: dose: 60.0 mg/kg/injection, schedule: Q01DX005 (ip), vehicle: Klucel (hydroxypropylcellulose) (HPC) 100 % of control | dose: 120.0 mg/kg/injection, schedule: Q01DX005 (ip), vehicle: Klucel (hydroxypropylcellulose) (HPC) 105 % of control | dose: 240.0 mg/kg/injection, schedule: Q01DX005 (ip), vehicle: Klucel (hydroxypropylcellulose) (HPC) 101 % of control

Oc1ccccc1C=NCCN1CC1.Oc1ccccc1C=NCCN1CC1.[Co+2]
inactive: dose: 4.7 mg/kg/injection, schedule: Q01DX009 (ip), vehicle: saline 103 % of control | dose: 9.4 mg/kg/injection, schedule: Q01DX009 (ip), vehicle: saline 102 % of control | dose: 18.8 mg/kg/injection, schedule: Q01DX009 (ip), vehicle: saline 100 % of control | dose: 37.5 mg/kg/injection, schedule: Q01DX009 (ip), vehicle: saline 100 % of control and 97 % of control

CN1CCC2OC2C1=NC#N (centres undefined)
inactive: [1] 102 % of control | [2] 101 % of control | [3] 105 % of control | [4] 101 % of control | [5] 97 % of control

COc1cc([N+](=O)[O-])ccc1C(=O)Nc1c2ccccc2nc2ccccc12
inactive: dose: 25.0 mg/kg/injection, schedule: Q01DX005 (ip), vehicle: saline with Tween-80 95 % of control | dose: 50.0 mg/kg/injection, schedule: Q01DX005 (ip), vehicle: saline with Tween-80 107 % of control | dose: 100.0 mg/kg/injection, schedule: Q01DX005 (ip), vehicle: saline with Tween-80 92 % of control | dose: 200.0 mg/kg/injection, schedule: Q01DX005 (ip), vehicle: saline with Tween-80 92 % of control

O=C(NC(Cc1ccc(Cl)cc1)C(=O)O)c1ccccc1 (centres undefined)
inactive: [6] 98 % of control | [7] 97 % of control | [8] 106 % of control

NNS(=O)(=O)c1ccc2ccccc2c1
inactive: dose: 12.5 mg/kg/injection, schedule: Q01DX009 (ip), vehicle: other 102 % of control | [6] 102 % of control and 86 % of control | [7] 86 % of control | [8] 102 % of control and 95 % of control | dose: 200.0 mg/kg/injection, schedule: Q01DX009 (ip), vehicle: other 101 % of control and 95 % of control

CCCNC(=S)Nc1ncco1
inactive: [3] 100 % of control | [4] 96 % of control | [5] 111 % of control

COc1cc([N+](=O)[O-])c(OC)c2c(=O)[nH]c(=O)[nH]c12
inactive: dose: 6.25 mg/kg/injection, schedule: Q01DX005 (ip), vehicle: Klucel (hydroxypropylcellulose) (HPC) 98 % of control | dose: 12.5 mg/kg/injection, schedule: Q01DX005 (ip), vehicle: Klucel (hydroxypropylcellulose) (HPC) 90 % of control

O=C(O)Cc1cn2cc(Cl)cc(Cl)c2n1
inactive: [9] 114 % of control | [10] 101 % of control | dose: 400.0 mg/kg/injection, schedule: Q01DX001 (ip), vehicle: Klucel (hydroxypropylcellulose) (HPC) 98 % of control

c1ccc(-c2cc[n+]3c4c2ccc2c(-c5ccccc5)cc[n+](c24)CC3)cc1
inactive: dose: 6.25 mg/kg/injection, schedule: Q01DX009 (ip), vehicle: saline 99 % of control | [1] 98 % of control and 100 % of control | [2] 104 % of control and 117 % of control

COc1cc([C@@H]2c3cc4c(c(O)c3C[C@H]3COC(=O)[C@@H]32)OCO4)cc(OC)c1OC
inactive: dose: 0.12 mg/kg/injection, schedule: Q01DX009 (ip), vehicle: saline 113 % of control | dose: 0.12 mg/kg/injection, schedule: Q01DX009 (ip), vehicle: suspension in saline 111 % of control | dose: 0.25 mg/kg/injection, schedule: Q01DX009 (ip), vehicle: saline 119 % of control | dose: 0.25 mg/kg/injection, schedule: Q01DX009 (ip), vehicle: suspension in saline 119 % of control | dose: 0.5 mg/kg/injection, schedule: Q01DX009 (ip), vehicle: saline 124 % of control

Cn1c(=O)c2c(-c3ccc(Cl)cc3)onc2n(C)c1=O
inactive: [11] 96 % of control | [12] 100 % of control

CCOC(=O)c1ccc(NC(=O)Oc2ccc3c(C)cc(=O)oc3c2)cc1
inactive: [13] 98 % of control | [14] 98 % of control | [15] 103 % of control

CC1(C)N=C(N)N=C(N)N1c1ccc(CCCCc2ccc(S(=O)(=O)F)cc2)c(Cl)c1
active: dose: 13.2 mg/kg/injection, schedule: Q01DX009 (ip), vehicle: saline 154 % of control | dose: 20.0 mg/kg/injection, schedule: Q01DX009 (ip), vehicle: saline 159 % of control | dose: 30.0 mg/kg/injection, schedule: Q01DX009 (ip), vehicle: saline 159 % of control | dose: 45.0 mg/kg/injection, schedule: Q01DX009 (ip), vehicle: saline 186 % of control

Cc1ccc(S(=O)(=O)CC2(Br)CCc3ccccc3C2=O)cc1 (centres undefined)
inactive: dose: 100.0 mg/kg/injection, schedule: Q04DX003 (ip), vehicle: saline 97 % of control | dose: 200.0 mg/kg/injection, schedule: Q04DX003 (ip), vehicle: saline 91 % of control | dose: 400.0 mg/kg/injection, schedule: Q04DX003 (ip), vehicle: saline 95 % of control

C1COCCOCCOCCO1.[Cl][Sn]([Cl])([Cl])[Cl]
inactive: [9] 98 % of control | [10] 90 % of control

CC(C)C=C1[C@H](O)CC[C@@H]1O
inactive: dose: 100.0 mg/kg/injection, schedule: Q04DX002 (ip), vehicle: saline 101 % of control | dose: 200.0 mg/kg/injection, schedule: Q04DX002 (ip), vehicle: saline 101 % of control | dose: 400.0 mg/kg/injection, schedule: Q04DX002 (ip), vehicle: saline 96 % of control

COc1ccccc1NC(=O)C1=C(C)NC(C)=C(C(=O)Nc2ccccc2C)C1c1ccccc1 (centres undefined)
inactive: [13] 100 % of control | [14] 104 % of control | [15] 89 % of control

CCCCCCCCCCCCCCCCCC[N+]1(CC)CCOCC1
inactive: dose: 0.78 mg/kg/injection, schedule: Q01DX009 (ip), vehicle: saline 87 % of control and 90 % of control | dose: 1.56 mg/kg/injection, schedule: Q01DX009 (ip), vehicle: saline 106 % of control and 87 % of control and 88 % of control | dose: 3.12 mg/kg/injection, schedule: Q01DX009 (ip), vehicle: saline 111 % of control and 87 % of control and 88 % of control | [2] 86 % of control | [3] 96 % of control | [4] 88 % of control | [5] 100 % of control

CN(C)NC(=O)[S-].CN(C)NC(=O)[S-].[Ni]
inactive: dose: 12.5 mg/kg/injection, schedule: Q01DX001 (ip), vehicle: saline with Tween-80 103 % of control | dose: 25.0 mg/kg/injection, schedule: Q01DX001 (ip), vehicle: saline with Tween-80 111 % of control | dose: 50.0 mg/kg/injection, schedule: Q01DX001 (ip), vehicle: saline with Tween-80 106 % of control and 96 % of control | dose: 100.0 mg/kg/injection, schedule: Q01DX001 (ip), vehicle: saline with Tween-80 109 % of control

CC(=O)OCC/C(SC(C)=O)=C(/C)N(C=O)Cc1cnc(C)nc1N
inactive: [3] 98 % of control | [4] 94 % of control | [5] 100 % of control

FC(F)(F)C(OCC1CO1)(c1cccc(C(OCC2CO2)(C(F)(F)F)C(F)(F)F)c1)C(F)(F)F (centres undefined)
inactive: [11] 99 % of control | [12] 100 % of control | dose: 200.0 mg/kg/injection, schedule: Q01DX009 (ip), vehicle: Klucel (hydroxypropylcellulose) (HPC) 100 % of control
